Values quoted from earlier work as cited in patent publication US20180042845A1, “PREPARATIONS OF CANNABIS EMULSIONS AND METHODS THEREOF” (ONE WORLD CANNABIS LTD., priority 2015, published 2018).

Experiments:
CB2 receptor = CB2 receptor (Homo sapiens, UniProt P34972)
Sequence of CB2 receptor (P34972 whole entry): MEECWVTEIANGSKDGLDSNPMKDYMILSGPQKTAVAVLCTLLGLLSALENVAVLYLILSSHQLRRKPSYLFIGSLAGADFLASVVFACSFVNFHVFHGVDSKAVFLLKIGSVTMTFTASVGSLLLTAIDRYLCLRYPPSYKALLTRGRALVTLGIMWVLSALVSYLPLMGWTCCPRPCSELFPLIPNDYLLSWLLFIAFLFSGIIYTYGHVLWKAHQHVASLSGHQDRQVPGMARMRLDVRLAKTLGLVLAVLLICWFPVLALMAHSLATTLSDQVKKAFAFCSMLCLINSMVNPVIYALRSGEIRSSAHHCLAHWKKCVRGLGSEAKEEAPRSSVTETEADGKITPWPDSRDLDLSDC

## C=C(C)[C@@H]1CCC(C)=C[C@H]1c1c(O)cc(CCCCC)cc1O [Cannabidiol]
CB2 receptor
  Affinity for CB2 receptors: very low affinity

## CCCCCc1cc(O)c2c(c1)OC(C)(C)[C@@H]1CCC(C)=C[C@@H]21 [THC, Tetrahydrocannabinol]
oral, first pass hepatic metabolism and high lipid solubility
  Fraction of administered dose reaching systemic circulation: 10-20%
Single dose
  Fraction absorbed after a single oral dose: 90-95%
